In PubChem BioAssay AID2060884 (Molecular Pharmacology Branch, DTP, NCI, 2025):

System: NCI-H929 complex spheroids, viability % test/control
Experiment: Anticancer human tumor NCI-H929 cell line growth inhibition [RAS];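 also: compound exposure lasted seven days before viability was read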;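 as to viability, T/C: 100% = DMSO vehicle control viability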
Conditions: for IC50: curve of first compound; for viability, T/C: stronger effect = lower value; active = viability on the fitted dose curve at most 10% of control; inactive = the rest
Procedure, shortened: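 Agents were tested in combination matrices in half-log decrements from a top concentration at or near clinical Cmax (10 microM if undetermined). Targets were multi-cell spheroids of tumour lines plus HUVEC and MSC stromal cells.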

Cc1nc(N2CCC3(CC2)COC(C)C3N)c(CO)nc1Sc1ccnc(N)c1Cl (centres undefined) + CCn1c(-c2cc(N3CCN(C)CC3)cnc2C(C)OC)c2c3cc(ccc31)-c1csc(n1)CC(NC(=O)C1CC1C)C(=O)N1CCCC(N1)C(=O)OCC(C)(C)C2
active: viability, T/C (second compound 0.0949 µM, first compound 0.0316 µM) 6.44% | viability, T/C (second compound 0.0949 µM, first compound 0.1 µM) 6.29% | viability, T/C (second compound 0.0949 µM, first compound 0.316 µM) 4.23% | viability, T/C (second compound 0.0949 µM, first compound 1 µM) 5.24% | viability, T/C (second compound 0.0949 µM, first compound 3.16 µM) 4.2% | viability, T/C (second compound 0.0949 µM, first compound 10 µM) 2.67% | viability, T/C (second compound 0.3 µM, first compound 0.0316 µM) 4.38% | viability, T/C (second compound 0.3 µM, first compound 0.1 µM) 3.24% | viability, T/C (second compound 0.3 µM, first compound 0.316 µM) 2.87% | viability, T/C (second compound 0.3 µM, first compound 1 µM) 3.05% | viability, T/C (second compound 0.3 µM, first compound 3.16 µM) 2.74% | viability, T/C (second compound 0.3 µM, first compound 10 µM) 1.82%
< 31.6 nM: IC50 (second compound 0.03 µM) | IC50 (second compound 0.0949 µM) | IC50 (second compound 0.3 µM)
> 10000 nM: IC50 (second compound 0.000949 µM) | IC50 (second compound 0.003 µM) | IC50 (second compound 0.00949 µM)
inactive: viability, T/C (second compound 0.000949 µM, first compound 0.0316 µM) 104% | viability, T/C (second compound 0.000949 µM, first compound 0.1 µM) 96.9% | viability, T/C (second compound 0.000949 µM, first compound 0.316 µM) 108% | viability, T/C (second compound 0.000949 µM, first compound 1 µM) 105% | viability, T/C (second compound 0.000949 µM, first compound 3.16 µM) 113% | viability, T/C (second compound 0.000949 µM, first compound 10 µM) 108% | viability, T/C (second compound 0.003 µM, first compound 0.0316 µM) 101% | viability, T/C (second compound 0.003 µM, first compound 0.1 µM) 102% | viability, T/C (second compound 0.003 µM, first compound 0.316 µM) 104% | viability, T/C (second compound 0.003 µM, first compound 1 µM) 107% | viability, T/C (second compound 0.003 µM, first compound 3.16 µM) 110% | viability, T/C (second compound 0.003 µM, first compound 10 µM) 107% | viability, T/C (second compound 0.00949 µM, first compound 0.0316 µM) 118% | viability, T/C (second compound 0.00949 µM, first compound 0.1 µM) 123% | viability, T/C (second compound 0.00949 µM, first compound 0.316 µM) 118% | viability, T/C (second compound 0.00949 µM, first compound 1 µM) 124% | viability, T/C (second compound 0.00949 µM, first compound 3.16 µM) 88.4% | viability, T/C (second compound 0.00949 µM, first compound 10 µM) 119% | viability, T/C (second compound 0.03 µM, first compound 0.0316 µM) 31.8% | viability, T/C (second compound 0.03 µM, first compound 0.1 µM) 25.4% | viability, T/C (second compound 0.03 µM, first compound 0.316 µM) 27.2% | viability, T/C (second compound 0.03 µM, first compound 1 µM) 27.8% | viability, T/C (second compound 0.03 µM, first compound 3.16 µM) 24.9% | viability, T/C (second compound 0.03 µM, first compound 10 µM) 19.7%

CCc1c2c(nc3ccc(O)cc13)-c1cc3c(c(=O)n1C2)COC(=O)[C@]3(O)CC + C=CC(=O)N1CCN(c2nc(OCC3CCCN3C)nc3c(F)c(-c4nc(N)cc(C)c4C(F)(F)F)c(Cl)cc23)C(C)C1
1.85 nM: IC50 (second compound 0.00316 µM)
1.94 nM: IC50 (second compound 0.01 µM) | IC50 (second compound 1 µM)
inactive: viability, T/C (second compound 0.00316 µM, first compound 0.000949 µM) 106% | viability, T/C (second compound 0.01 µM, first compound 0.000949 µM) 101% | viability, T/C (second compound 0.01 µM, first compound 0.003 µM) 18.9% | viability, T/C (second compound 0.0316 µM, first compound 0.000949 µM) 103% | viability, T/C (second compound 0.0316 µM, first compound 0.003 µM) 20.9% | viability, T/C (second compound 0.1 µM, first compound 0.000949 µM) 104% | viability, T/C (second compound 0.1 µM, first compound 0.003 µM) 19.8% | viability, T/C (second compound 0.316 µM, first compound 0.000949 µM) 107% | viability, T/C (second compound 0.316 µM, first compound 0.003 µM) 20.4% | viability, T/C (second compound 1 µM, first compound 0.000949 µM) 116%
active: viability, T/C (second compound 0.00316 µM, first compound 0.003 µM) 9.93% | viability, T/C (second compound 0.00316 µM, first compound 0.00949 µM) 1.39% | viability, T/C (second compound 0.00316 µM, first compound 0.03 µM) 1.87% | viability, T/C (second compound 0.00316 µM, first compound 0.0949 µM) 2.37% | viability, T/C (second compound 0.00316 µM, first compound 0.3 µM) 1.53% | viability, T/C (second compound 0.01 µM, first compound 0.00949 µM) 2.06% | viability, T/C (second compound 0.01 µM, first compound 0.03 µM) 3.03% | viability, T/C (second compound 0.01 µM, first compound 0.0949 µM) 2.18% | viability, T/C (second compound 0.01 µM, first compound 0.3 µM) 1.15% | viability, T/C (second compound 0.0316 µM, first compound 0.00949 µM) 1.84% | viability, T/C (second compound 0.0316 µM, first compound 0.03 µM) 2.69% | viability, T/C (second compound 0.0316 µM, first compound 0.0949 µM) 2.18% | viability, T/C (second compound 0.0316 µM, first compound 0.3 µM) 0.6% | viability, T/C (second compound 0.1 µM, first compound 0.00949 µM) 1.52% | viability, T/C (second compound 0.1 µM, first compound 0.03 µM) 1.4% | viability, T/C (second compound 0.1 µM, first compound 0.0949 µM) 1.53% | viability, T/C (second compound 0.1 µM, first compound 0.3 µM) 0.65% | viability, T/C (second compound 0.316 µM, first compound 0.00949 µM) 1.92% | viability, T/C (second compound 0.316 µM, first compound 0.03 µM) 2.44% | viability, T/C (second compound 0.316 µM, first compound 0.0949 µM) 1.37% | viability, T/C (second compound 0.316 µM, first compound 0.3 µM) 0.74% | viability, T/C (second compound 1 µM, first compound 0.003 µM) 9.86% | viability, T/C (second compound 1 µM, first compound 0.00949 µM) 2.04% | viability, T/C (second compound 1 µM, first compound 0.03 µM) 2.87% | viability, T/C (second compound 1 µM, first compound 0.0949 µM) 1.52% | viability, T/C (second compound 1 µM, first compound 0.3 µM) 0.6%
2.03 nM: IC50 (second compound 0.316 µM)
1.99 nM: IC50 (second compound 0.0316 µM) | IC50 (second compound 0.1 µM)
